Reference: patent US6552080B1, “Fungicidal compounds having a fluorovinyl-or fluoropropenyl-oxyphenyloxime moiety and process for the preparation thereof” (Korea Research Institute of Chemical Technology, priority 1999, dated 2003)
Like-named read-outs stand apart in the source and are kept apart here.

Key:
[1] = test system: Pyricularia oryzae Carvara KA301; type: in vivo; settings: Rice Blast
Botrytis cinerae = assay: Fungicidal activity against Cucumber Gray Mold Rot (CGM) disease; type: in vivo; settings: Cucumber Gray Mold Rot; concentration 50 ppm
Procedure: Botrytis cinerae, which was isolated from cucumber infected thereby, was inoculated on a PDA agar medium and cultured under a 12L/12D cycle at 25° C. for 15 days to form spore. The spores were scraped, filtered through a gauze and then suspended in potato dextrose liquid medium at a concentration of 1×10^6 spore/ml. The spore suspension was sprayed on a cucumber plant having one leaf. The cucumber plant was held in a humidified room at 20° C. for 3 days. L.A. on a leaf was measured to calculate an C.V.

Phytophthora infestans = type: in vivo; settings: Tomato Late Blight
Puccinia recondita = assay: Fungicidal activity against Wheat Leaf Rust (WLR) disease; type: in vivo; settings: Wheat Leaf Rust
Erysiphae graminis = assay: Fungicidal activity against Barley Powdery Mildew (BPM) disease; type: in vivo; settings: Barley Powdery Mildew
Rhizoctonia solani AG-1 = assay: Fungicidal activity against Rice Sheath Blight (RSB) disease; settings: Rice Sheath Blight

Compound	RCV (Fungicidal Activities, C.V.) ([1]; concentration 2 ppm)	RCV (Fungicidal Activities, C.V.) ([1]; concentration 10 ppm)	RCV (Fungicidal Activities, C.V.) ([1]; concentration 50 ppm)	CGM (Fungicidal Activities, C.V.) (Botrytis cinerae)	TLB (Fungicidal Activities, C.V.) (Phytophthora infestans; concentration 50 ppm)	WLR (Fungicidal Activities, C.V.) (Puccinia recondita; concentration 2 ppm)	WLR (Fungicidal Activities, C.V.) (Puccinia recondita; concentration 10 ppm)	WLR (Fungicidal Activities, C.V.) (Puccinia recondita; concentration 50 ppm)	BPM (Fungicidal Activities, C.V.) (Erysiphae graminis; concentration 2 ppm)	BPM (Fungicidal Activities, C.V.) (Erysiphae graminis; concentration 10 ppm)	BPM (Fungicidal Activities, C.V.) (Erysiphae graminis; concentration 50 ppm)	RSB (Fungicidal Activities, C.V.) (Rhizoctonia solani AG-1; concentration 50 ppm)	TLB (Fungicidal Activities, C.V.) (Phytophthora infestans; concentration 2 ppm)	TLB (Fungicidal Activities, C.V.) (Phytophthora infestans; concentration 10 ppm)	RSB (Fungicidal Activities, C.V.) (Rhizoctonia solani AG-1; concentration 2 ppm)	RSB (Fungicidal Activities, C.V.) (Rhizoctonia solani AG-1; concentration 10 ppm)
COC=C(C(=O)OC)c1ccccc1CON=C(C)c1cccc(OC(F)=Cc2ccc3ccccc3c2)c1 [Compound 56]	25%	80%	95%	5%	57%	95%	100%	100%	100%	100%	100%	70%				
CNC(=O)C(=COC)c1ccccc1CON=C(C)c1cccc(OC(F)=Cc2ccc(C)cc2)c1 [Compound 57]	95%		99%	8%	0%	27%		98%	0%		98%	47%				
CNC(=O)C(=COC)c1ccccc1CON=C(C)c1cccc(OC(F)=Cc2cc(C)cc(C)c2)c1 [Compound 58]			100%	8%	0%			98%			98%	23%				
CCc1ccc(C=C(F)Oc2cccc(C(C)=NOCc3ccccc3C(=COC)C(=O)NC)c2)cc1 [Compound 59]			100%	0%	0%			73%			91%	47%				
CNC(=O)C(=COC)c1ccccc1CON=C(C)c1cccc(OC(F)=Cc2ccc(OC)cc2)c1 [Compound 60]			100%	8%	0%			66%			100%	29%				
CNC(=O)C(=COC)c1ccccc1CON=C(C)c1cccc(OC(F)=Cc2ccc(Cl)c(C)c2)c1 [Compound 61]			91%	33%	0%			43%			86%	23%				
CNC(=O)C(=COC)c1ccccc1CON=C(C)c1cccc(OC(F)=Cc2cccc(Cl)c2)c1 [Compound 62]	92%		96%	25%	0%	83%		99%	0%		100%	0%				
CNC(=O)C(=COC)c1ccccc1CON=C(C)c1cccc(OC(F)=Cc2ccc3c(c2)OCO3)c1 [Compound 63]			96%	33%	0%			90%			97%	11%				
CO/N=C(/C(=O)OC)c1ccccc1CON=C(C)c1cccc(OC(F)=Cc2ccccc2)c1 [Compound 64]	100%	100%	100%	75%	95%	99%	100%	100%	100%	100%	100%	85%	87%	90%	45%	65%
